These results are taken from patent US11912710B2 (UPPTHERA, INC., priority 2021, dated 2024).

What all share (format): cell-based
For one experiment, the system named is MRC-5 cell line. The experiment is described as follows: Cell viability assay (cytotoxicity) for MRC-5 cell line. The note with it: Homo sapiens, MRC5, 120 h; MRC-5 normal cell line, 5 days, EZ-Cytox, 10000 nM to 1.52 nM; read-out: Activity: IC50 value to MRC-5 cell line (Exemplary Compounds). As to the method: 4. Cell Viability Assay for MRC-5 Cell Line
(1) Culture of MRC-5 Cell Line
Passage of cultured cells was maintained within P15.
(2) Treatment of Compounds of the Present Invention
Then, it was cultured in 37° C.
(3) Cytotoxicity Experiment
CO2 incubator for 4 hours.
Cell Viability Assay for MRC-5 cell line

For another experiment, the target named is T1, PLK1 (Homo sapiens, UniProt P53350).
T1 construct: endogenous in cells; host or cells: HeLa LgBit (Plk1-HiBit KI): HeLa cells stably expressing LgBit, with HiBit knocked into the endogenous Plk1 locus by CRISPR/Cas9
The experiment is described as follows: Luciferase assay for PLK1 in HeLa LgBit (Plk1-HiBit KI) cell line. Conditions: 300 nM compound, luminescence after 9 hours, read-out: Activity: ratio of the luminescense value of compound treatment group to DMSO treatment group. The procedure: 2. Luciferase Assay for PLK1
(1) Preparation and Culture of HeLa LgBit (Plk1-HiBit KI) Cell Line
A HeLa cell line in which the LgBit vector was transfected and expressed stably was prepared. Then, after constructing gRNA and donor to express the HiBit amino acid sequence behind the C-terminal of the Plk1 gene, which was inherent in the cell, it was inserted into the cell together with a vector capable of expressing CRISPR/Cas9. Only the cells in which the insertion was completed and knock-in had progressed were selected, sub-cultured and used.
(2) Treatment of Compounds of the Present Invention and Method of Luciferase Assay
In the case of HeLa LgBit (Plk1-HiBit KI), the compounds were treated after being released after thymidine block, and the process was as follows. Thymidine (Sigma-Aldrich Cat. No. T9250-5G) was completely dissolved in DW and used in the experiment. For thymidine block, the products were treated with 2 mM of thymidine and then incubated for 24 hours. For release and chemical treatment, the medium was suctioned and washed with 1×PBS. TrypLE™ was added and incubated in 37° C. CO2 incubator for 5 min. Cells neutralized by adding complete media were counted through a counter. For each well of a 96-well culture plate (SPL), 3.3×10^4 cells and a total medium volume of 150 μL were seeded and incubated in a CO2 incubator.
Each cell line was incubated in a CO2 incubator for 18 hours, and Endurazine was added to each well to make up 4% of the total volume. After adding the compound of the present invention in a 96-well white plate (SPL) to a concentration of 300 nM, the wavelength of the plate reader (BMG Labtech, CLARIOstar Plus) was set to […], and then the luminescence was tracked in real time.
In Table 2, Activity represents the ratio of the luminescense value of each Exemplary Compound treatment group to DMSO treatment group (+++: <0.3, ++<0.6, +<0.7).
(In general: HiBiT is a short tag that completes a luciferase, so light tracks the accessible tagged protein.)

The next experiment relates to NCI-H526 cell line. Put plainly: Cell viability assay for H526 cell line. The note with it: Homo sapiens, NCI-H526, 120 h; H526 cells, 5 days, EZ-Cytox, 3000 nM to 0.46 nM. As to the method: 3. Cell Viability Assay for H526 Cell Line
(1) Culture of NCI-H526 Cell Line
(2) Treatment of Compounds of the Present Invention and Method of Cell Viability Assay
After treating the compound to each well to make the total volume of 200 μL, it was cultured in a CO2 incubator (Thermo Fisher Science, Cat. No. 4111) for 5 days.
The absorbance of the completely cultured sample was measured by setting the wavelength of a plate reader (BMG Labtech, CLARIOstar Plus) to […], and was measured after shaking for 3 minutes in a plate reader before measurement.
In Table 3, Activity represents IC50 value of each Exemplary Compound treatment group to H526 cell line (A: <30 nM, B: <50 nM, C: <100 nM, D: <200 nM, E: <400 nM).

Broadly, the IC50 is the concentration that inhibits the measured activity by half.

T1 sequence (P53350 whole entry): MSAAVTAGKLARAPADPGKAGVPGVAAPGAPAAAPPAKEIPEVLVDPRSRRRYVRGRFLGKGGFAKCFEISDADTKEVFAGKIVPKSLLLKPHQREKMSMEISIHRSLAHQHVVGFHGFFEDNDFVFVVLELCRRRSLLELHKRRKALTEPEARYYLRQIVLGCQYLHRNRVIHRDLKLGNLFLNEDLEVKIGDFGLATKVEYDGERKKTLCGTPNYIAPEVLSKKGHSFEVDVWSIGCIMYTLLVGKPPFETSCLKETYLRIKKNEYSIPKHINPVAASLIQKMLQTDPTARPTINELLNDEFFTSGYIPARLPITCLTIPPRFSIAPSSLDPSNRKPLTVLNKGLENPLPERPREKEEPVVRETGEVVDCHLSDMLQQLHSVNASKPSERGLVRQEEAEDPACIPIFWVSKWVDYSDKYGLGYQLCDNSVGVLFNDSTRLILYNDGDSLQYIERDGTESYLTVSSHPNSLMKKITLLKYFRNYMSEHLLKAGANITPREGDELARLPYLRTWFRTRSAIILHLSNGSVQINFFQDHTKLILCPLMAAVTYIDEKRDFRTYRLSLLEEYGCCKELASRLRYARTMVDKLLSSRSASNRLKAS

On to `COc1cc(C(=O)NC2CCN(C(=O)CCCOc3ccc(C4CCC(=O)NC4=O)cc3)CC2)c(F)cc1Nc1ncc2c(n1)N(C1CCCC1)CC(F)(F)C(=O)N2C` (stereo not drawn) [Compound 3, 4-((9-cyclopentyl-7,7-difluoro-5-methyl-6-oxo-6,7,8,9-tetrahydro-5H-pyrimido[4,5-b][1,4]diazepin-2-yl)amino)-N-(1-(4-(4-(2,6-dioxopiperidin-3-yl)phenoxy)butanoyl)piperidin-4-yl)-2-fluoro-5-methoxybenzamide], for which the values for the IC50 with MRC-5 cell line and in the experiment on NCI-H526 cell line were greater than 10 µM and less than 0.1 µM, respectively. On PLK1, the remaining activity at 0.3 µM is less than 60%.
For `COc1cc(C(=O)NC2CCN(C(=O)CCCOc3cccc(C4CCC(=O)NC4=O)c3)CC2)ccc1Nc1ncc2c(n1)N(C1CCCC1)CC(F)(F)C(=O)N2C` (stereo not drawn) [Compound 4, 4-((9-cyclopentyl-7,7-difluoro-5-methyl-6-oxo-6,7,8,9-tetrahydro-5H-pyrimido[4,5-b][1,4]diazepin-2-yl)amino)-N-(1-(4-(3-(2,6-dioxopiperidin-3-yl)phenoxy)butanoyl)piperidin-4-yl)-3-methoxybenzamide] the same measures were greater than 10 µM, less than 0.05 µM and less than 30%.
Turning to `COc1cc(C(=O)NC2CCN(C(=O)CCN3CCN(c4ccc(C5CCC(=O)NC5=O)cc4)CC3)CC2)ccc1Nc1ncc2c(n1)N(C1CCCC1)CC(F)(F)C(=O)N2C` (stereo not drawn) [Compound 5, 4-((9-cyclopentyl-7,7-difluoro-5-methyl-6-oxo-6,7,8,9-tetrahydro-5H-pyrimido[4,5-b][1,4]diazepin-2-yl)amino)-N-(1-(3-(4-(4-(2,6-dioxopiperidin-3-yl)phenyl)piperazin-1-yl)propanoyl)piperidin-4-yl)-3-methoxybenzamide], the IC50 was greater than 10 µM in the experiment on MRC-5 cell line and less than 0.03 µM in the experiment with NCI-H526 cell line. At PLK1, the remaining activity at 0.3 µM was less than 60%.
The corresponding values for `COc1cc(C(=O)NC2CCN(C(=O)CCN3CCN(c4cccc(C5CCC(=O)NC5=O)c4)CC3)CC2)ccc1Nc1ncc2c(n1)N(C1CCCC1)CC(F)(F)C(=O)N2C` (stereo not drawn) [Compound 6, 4-((9-cyclopentyl-7,7-difluoro-5-methyl-6-oxo-6,7,8,9-tetrahydro-5H-pyrimido[4,5-b][1,4]diazepin-2-yl)amino)-N-(1-(3-(4-(3-(2,6-dioxopiperidin-3-yl)phenyl)piperazin-1-yl)propanoyl)piperidin-4-yl)-3-methoxybenzamide] are greater than 10 µM, less than 0.03 µM and less than 60%.
In the case of `COc1cc(C(=O)NC2CCC(N(C)CC3CCN(c4ccc(C5CCC(=O)NC5=O)cc4F)CC3)CC2)ccc1Nc1ncc2c(n1)N(C1CCCC1)CC(F)(F)C(=O)N2C` (stereo not drawn) [Compound 7, 4-((9-cyclopentyl-7,7-difluoro-5-methyl-6-oxo-6,7,8,9-tetrahydro-5H-pyrimido[4,5-b][1,4]diazepin-2-yl)amino)-N-((1r,4r)-4-(((1-(4-(2,6-dioxopiperidin-3-yl)-2-fluorophenyl)piperidin-4-yl)methyl)(methyl)amino)cyclohexyl)-3-methoxybenzamide], the IC50 in the experiment on MRC-5 cell line is greater than 10 µM; in the experiment with NCI-H526 cell line, less than 0.03 µM. Besides, the remaining activity at 0.3 µM at PLK1 was less than 30%.
For `COc1cc(C(=O)NC2CCC(CN(C)C3CCN(c4ccc(C5CCC(=O)NC5=O)cc4F)CC3)CC2)ccc1Nc1ncc2c(n1)N(C1CCCC1)CC(F)(F)C(=O)N2C` (stereo not drawn) [Compound 8, 4-((9-cyclopentyl-7,7-difluoro-5-methyl-6-oxo-6,7,8,9-tetrahydro-5H-pyrimido[4,5-b][1,4]diazepin-2-yl)amino)-N-((1r,4r)-4-(((1-(4-(2,6-dioxopiperidin-3-yl)-2-fluorophenyl)piperidin-4-yl)(methyl)amino)methyl)cyclohexyl)-3-methoxybenzamide] the same measures were greater than 10 µM, less than 0.03 µM and less than 30%.
On to `COc1cc(C(=O)NC2CCN(C(=O)CC3CCN(c4ccc(C5CCC(=O)NC5=O)cc4F)CC3)CC2)ccc1Nc1ncc2c(n1)N(C1CCCC1)CC(F)(F)C(=O)N2C` (stereo not drawn) [Compound 10, 4-((9-cyclopentyl-7,7-difluoro-5-methyl-6-oxo-6,7,8,9-tetrahydro-5H-pyrimido[4,5-b][1,4]diazepin-2-yl)amino)-N-(1-(2-(1-(4-(2,6-dioxopiperidin-3-yl)-2-fluorophenyl)piperidin-4-yl)acetyl)piperidin-4-yl)-3-methoxybenzamide], for which the IC50 in the experiment on MRC-5 cell line is greater than 10 µM; with NCI-H526 cell line it was less than 0.05 µM. Moreover, the remaining activity at 0.3 µM on PLK1 is less than 30%.
The corresponding values for `COc1cc(C(=O)NC2CCN(C(=O)CCN3CCN(c4ccc(C5CCC(=O)NC5=O)cc4F)CC3)CC2)ccc1Nc1ncc2c(n1)N(C1CCCC1)CC(F)(F)C(=O)N2C` (stereo not drawn) [Compound 11, 4-((9-cyclopentyl-7,7-difluoro-5-methyl-6-oxo-6,7,8,9-tetrahydro-5H-pyrimido[4,5-b][1,4]diazepin-2-yl)amino)-N-(1-(3-(4-(4-(2,6-dioxopiperidin-3-yl)-2-fluorophenyl)piperazin-1-yl)propanoyl)piperidin-4-yl)-3-methoxybenzamide] are greater than 10 µM, less than 0.03 µM and less than 30%.
As to `COc1cc(C(=O)NN2CCC(CCN3CCN(c4ccc(C5CCC(=O)NC5=O)cc4F)CC3)CC2)ccc1Nc1ncc2c(n1)N(C1CCCC1)CC(F)(F)C(=O)N2C` (stereo not drawn) [Compound 12, 4-((9-cyclopentyl-7,7-difluoro-5-methyl-6-oxo-6,7,8,9-tetrahydro-5H-pyrimido[4,5-b][1,4]diazepin-2-yl)amino)-N-(4-(2-(4-(4-(2,6-dioxopiperidin-3-yl)-2-fluorophenyl)piperazin-1-yl)ethyl)piperidin-1-yl)-3-methoxybenzamide], the IC50 in the experiment on MRC-5 cell line was 20 µM; in the experiment on NCI-H526 cell line, less than 0.03 µM. Also, the remaining activity at 0.3 µM on PLK1 was less than 30%.
The corresponding values for `COc1cc(C(=O)NC2CCCN(C(=O)CN3CCN(c4ccc(C5CCC(=O)NC5=O)cc4F)CC3)C2)ccc1Nc1ncc2c(n1)N(C1CCCC1)CC(F)(F)C(=O)N2C` (stereo not drawn) [Compound 13, 4-((9-cyclopentyl-7,7-difluoro-5-methyl-6-oxo-6,7,8,9-tetrahydro-5H-pyrimido[4,5-b][1,4]diazepin-2-yl)amino)-N-(1-(2-(4-(4-(2,6-dioxopiperidin-3-yl)-2-fluorophenyl)piperazin-1-yl)acetyl)piperidin-3-yl)-3-methoxybenzamide] are greater than 10 µM, less than 0.05 µM and less than 60%.
For `COc1cc(C(=O)NC2CCCN(C(=O)CCN3CCN(c4ccc(C5CCC(=O)NC5=O)cc4F)CC3)C2)ccc1Nc1ncc2c(n1)N(C1CCCC1)CC(F)(F)C(=O)N2C` (stereo not drawn) [Compound 14, 4-((9-cyclopentyl-7,7-difluoro-5-methyl-6-oxo-6,7,8,9-tetrahydro-5H-pyrimido[4,5-b][1,4]diazepin-2-yl)amino)-N-(1-(3-(4-(4-(2,6-dioxopiperidin-3-yl)-2-fluorophenyl)piperazin-1-yl)propanoyl)piperidin-3-yl)-3-methoxybenzamide] the same measures were greater than 10 µM, less than 0.1 µM and less than 60%.
The corresponding values for `COc1cc(C(=O)NC2CC3(CCN(CC4CCN(c5ccc(C6CCC(=O)NC6=O)cc5F)CC4)CC3)C2)ccc1Nc1ncc2c(n1)N(C1CCCC1)CC(F)(F)C(=O)N2C` (stereo not drawn) [Compound 15, 4-((9-cyclopentyl-7,7-difluoro-5-methyl-6-oxo-6,7,8,9-tetrahydro-5H-pyrimido[4,5-b][1,4]diazepin-2-yl)amino)-N-(7-((1-(4-(2,6-dioxopiperidin-3-yl)-2-fluorophenyl)piperidin-4-yl)methyl)-7-azaspiro[3.5]nonan-2-yl)-3-methoxybenzamide] are greater than 10 µM, less than 0.03 µM and less than 30%.
